Assay results taken from patent publication US7329423B2, “Compositions comprising thylakoids useful in the modulation of inflammation process” (Purecell Technologies Inc., priority 2001, dated 2008).

Columns and labels:
[1] = test system: TNBS-induced colonic damage in rat intestine; assay: Potentiation of mesalamine in TNBS-stressed rat intestine (Experiment 11); type: in vivo; conditions: Wistar rats, mesalamine 57 mg/kg with or without extract 2 mg/kg in the intestinal lumen 24 and 48 h before TNBS
Description: Male Wistar rats (Charles River Laboratories, Montreal) were kept in individual cages, at 20° C. and 55% relative humidity with 12-h light/12-h dark cycle, in a facility that met the Canadian Council on Animal Care (C.C.A.C.) guidelines. The rats were subjected to a 24-hour starving period prior to inflammatory stress induction. Four groups of rats were treated in the following manner: • (Treatment-1) Non-stressed control (n=3); • (Treatment-2) 2,4,6-Trinitrobenzenesulfonic acid (inflammatory agent) in the intestinal lumen (n=3); • (Treatment-3) Mesalamine (5-aminosalicyclic acid; NSAID) (57 mg/kg) administered directly in the intestinal lumen 24 and 48 hours prior to administration of the stress agent (n=3) • (Treatment4) Thylakoid extract (0.05%) (2 mg/kg)+mesalamine (57 mg/kg) administered directly in the intestinal lumen 24 and 48 hours prior to administration of the stress agent (n=3). Twenty-four hours later, the rats were sacrificed and a 10 cm excision of the intestine was sampled.

[2] = test system: TPA-induced inflammation of mouse ears; assay: Potentiation of budesonide in TPA-induced mouse ear inflammation (Experiment 10); type: in vivo; conditions: BALB/C mice, 24 h
Description: Mice (BALB/C) were kept in individual cages, at 20° C. and 55% relative humidity with 12-h light/12-h dark cycle, in a facility that met the Canadian Council on Animal Care (C.C.A.C.) guidelines. The animals were subjected to an 18-hour starving period prior to treatments. […] of mice were treated in the following manner: • (Treatment-1) No application of cream (n=3); • (Treatment-2) Neutral base cream (n=3); • (Treatment-3) Budesonide (0.1%) in neutral base cream (n=3); • (Treatment-4) Budesonide (0.01%) in neutral base cream (n=3); • (Treatment-5) Budesonide (0.01%)+thylakoid extract (0.05%) in neutral base cream (n=3). All treatments were applied 4 and 8 hours following the inflammatory stress (post-treatment) at a dose of 2 μl/cm^2. Animals were kept in the dark for the duration of the treatments. Prior to treatment, mouse ears were subjected to an inflammatory stress by a topical application of phorbol 12-myristate 13-acetate (TPA) (Sigma Chemicals Co.). 20 μL of TPA (0.2 μg/μL) in an acetone solution was applied (Griswold et al., 1998). The right ear of each mouse was treated with TPA whereas the left ear served as the unstressed control. After 24 hours, the mice were sacrificed and a punch of 6 mm in diameter of both the left and right ears was sampled. Ear punch thickness was measured by an electronic digital caliper 0.01 mm (Traceable).

Compound	macroscopic colonic damage score (scale 0-10) [1]	decrease of ear punch thickness ([2]; budesonide 0.01% in neutral base cream 4 and 8 h after TPA)	decrease of ear punch thickness compared to the untreated control (Treatment-1) ([2]; budesonide 0.1% in neutral base cream 4 and 8 h after TPA)
Nc1ccc(O)c(C(=O)O)c1 [mesalamine, 5-aminosalicyclic acid]	4.0	–	–
CCCC1O[C@@H]2C[C@H]3[C@@H]4CCC5=CC(=O)C=C[C@]5(C)[C@H]4[C@@H](O)C[C@]3(C)[C@]2(C(=O)CO)O1 (stereo partly drawn) [Budesonide, budesonide]	–	32.6%	58.2%
